The results in this text go back to patent publication US7626044B2, “Triptolide derivatives and their uses” (priority 2002, dated 2009).

The term melting point denotes the temperature, or range, at which the solid turns liquid.

Data set [1] deals with DNFB-induced mouse DTH response. In words: DNFB-induced mouse delayed type hypersensitivity response (DTH). The format is in vivo. To be noted: Table 8, i.p., Balb/c mice, dosage 1000 (mg/kg). The method, then: Female Balb/c mice (age of 6-8 wk) were randomly divided into groups and immunized with 20 μl 0.5% DNFB solution in absolute acetone-olive oil (4:1) on each hind foot on day 0 and 1;
7-9 days after the initial immunization, mice were boosted with 10 μl 0.4% DNFB on both sides of the left ear, whereas the right ear was treated with vehicle alone;
Compounds were administered intraperitoneally (i.p.) or orally (p.o.) to the mice 1 h before DNFB booster immunization and 12 h later.
Ear swelling and other indexes were assessed 24-48 h after booster immunization.
Note: Female ICR mice (age of 6-8 wk) were immunized with 0.7% DNFB solution and boosted with 0.6% DNFB solution.

The test system of data set [2] is anti-SRBC specific antibodies production by B lymphocytes. The format is in vivo, mouse. To be noted: Table 12, positive control given i.p., ICR mice, dosage 4 mg/kg.
A further data set has as its system lymphocyte. In words: MTT cytotoxic assay. The class given is cell-based, mouse. Conditions: control 0.337. The method, then:
Mice were sacrificed by cervical dislocation, and spleens were collected under sterile conditions then teased through a nylon mesh. Erythrocytes were lysed. Cells were washed and resuspended at 5×10^6/ml in RPMI-1640 media supplemented with 10% FBS.
For one 96 well plate assay, 90 μl of cells, 45 μl of sample and 45 μl of RPMI-1640 media with 10% FBS were added into each well with the final volume 180 μl. The negative control wells (containing 90 μl of RPMI-1640 media with 10% FBS and 90 pt of cells), blank control (180 μl of RPMI-1640 media with 10% FBS) were also performed. Incubate plate for 48 hours at 37° C., 5% CO2 in a humidified incubator. 18 μl of MTT solution (5 mg/ml) was added for 6-7 h.
90 μl of MTT lysis solution was added to each well followed by a further incubation at 37° C. for 6-7 h. And the absorbance was measured at 570 nm using a plate reader.

The next data set relates to T lymphocyte. The experiment in a line: ConA induced T-lymphocyte proliferation ([3H]thymidine). The class given is cell-based, mouse. To be noted: control 125789. Here is the method: (§1) Mice were sacrificed by cervical dislocation, and spleens were collected under sterile conditions then teased through a nylon mesh. Erythrocytes were lysed. Cells were washed and resuspended at 5×10^6/ml in RPMI-1640 media containing 10% FBS. For one 96 well plate assay, 100 pt of cells, 50 μl of sample and 50 μl of ConA/LPS were added into each well with the final volume 200 μl. The control wells were set up with 50 μl of RPMI-1640 media instead of ConA/LPS.
(§2) Plates were incubated for 48 h (ConA) or 60 h (LPS), respectively, at 37° C., 5% CO2 in a humidified incubator. In the last 8 h of incubation, 25 μl (1.9×10^10 Bq) of [^3H]thymidine was added. After plates were incubated for 48 h, the plates (ConA) were stored at −20° C., then after another 12 h, the plates (LPS) were stored at −20° C.
(§3) At the end of incubation, pulsed cells were harvested on a glass filter using a cell harvester ([…]96®, TOMTEC) and allowed to dry. Incorporation of radioactive thymidine was determined by using liquid Scintillation and Luminescence Counters (MicroBeta Trilux®, PerkinElmer).

Another data set has as its system B lymphocyte. The experiment in a line: LPS induced B-lymphocyte proliferation ([3H]thymidine). The format is cell-based, mouse. To be noted: control 87373. Here is the method:
as §1, §2, §3

Turning to `O=P1(N(CCCl)CCCl)NCCCO1` (stereo not drawn) [CTX, reference compound], the “Body weight after i.p.” value in data set [1] (control 21.9) is given as 21.1 g. Besides, the “Body weight before i.p.” value in data set [1] (control 22.4) was 22.1 g. In addition, the “Ear swelling X ± SD” value in data set [1] (control 22.7 ± 2.1) was determined as 15.6 ± 8.1 mg. For the same compound, the Right ear in data set [1] (control 26.4) came to 30.3 mg. This compound also gave a Left ear in data set [1] (control 49.1) of 45.9 mg. Besides, the Spleen in data set [1] (control 154.0) came to 141.2 mg; in data set [2] (control 55.7), 50.7 mg/10 g. The “QHS OD value” in data set [2] (control 0.38) turned out to be 0.12. The C3 in data set [2] (control 7.9) stood at 7.5 μg/10 μl. Also, in data set [2] (control 23.4), the Body weight is reported as 22.6 g. Besides, in data set [2] (control 28.8), the Thymus amounted to 28.2 mg. Also, the “Total IgG” value in data set [2] (control 117) stood at 101 μg/10 μl.
On to `CC(C)[C@]12O[C@H]1[C@@H]1O[C@@]13[C@@]1(C)CCC4=C(COC4=O)C1=C[C@@H]1O[C@@]13C2=O` [LLDT-15, Δ^5,6-dehydrotriptonide], for which the melting point is 242 to 244 °C (dec.). In addition, the “Cytotoxicity OD Value” in the data set with lymphocyte (10^−6 M) was determined as 0.156. Also, the “Cytotoxicity OD Value” in the data set on lymphocyte (10^−7 M) is listed as 0.316. For the same compound, the “Cytotoxicity OD Value” with lymphocyte (10^−8 M) was 0.327. The “Lymphocyte Proliferation (cpm) T cell” value with T lymphocyte (10^−6 M) worked out at 10296 cpm. Also, in the data set with T lymphocyte (10^−7 M), the “Lymphocyte Proliferation (cpm) T cell” value was 63914 cpm. In addition, the “Lymphocyte Proliferation (cpm) T cell” value in the data set with T lymphocyte (10^−8 M) amounted to 69613 cpm. Also, in the data set on B lymphocyte (10^−6 M), the “Lymphocyte Proliferation (cpm) B cell” value was 30889 cpm. The “Lymphocyte Proliferation (cpm) B cell” value with B lymphocyte (10^−7 M) is 85240 cpm. Moreover, the “Lymphocyte Proliferation (cpm) B cell” value in the data set on B lymphocyte (10^−8 M) was determined as 77139 cpm.
As for `CC(C)[C@]12O[C@H]1[C@@H]1O[C@@]13[C@@]1(C)CCC4=C(COC4=O)[C@@]14O[C@H]4[C@@H]1O[C@@]13C2=O` [LLDT-16, (5R, 6S)-5,6-epoxytriptonide], the melting point was 252 to 254 °C (dec.). Further, the “Cytotoxicity OD Value” in the data set with lymphocyte (10^−6 M) worked out at 0.304. Moreover, the “Cytotoxicity OD Value” in the data set on lymphocyte (10^−7 M) was found to be 0.337. The “Cytotoxicity OD Value” with lymphocyte (10^−8 M) was found to be 0.372. In addition, in the data set on T lymphocyte (10^−6 M), the “Lymphocyte Proliferation (cpm) T cell” value came out at 76204 cpm. Besides, in the data set with T lymphocyte (10^−7 M), the “Lymphocyte Proliferation (cpm) T cell” value was 75599 cpm. The “Lymphocyte Proliferation (cpm) T cell” value with T lymphocyte (10^−8 M) came out at 89029 cpm. Moreover, in the data set with B lymphocyte (10^−6 M), the “Lymphocyte Proliferation (cpm) B cell” value is given as 80768 cpm. In addition, the “Lymphocyte Proliferation (cpm) B cell” value in the data set with B lymphocyte (10^−7 M) is on record as 82285 cpm. For the same compound, the “Lymphocyte Proliferation (cpm) B cell” value in the data set on B lymphocyte (10^−8 M) was found to be 71877 cpm.
Consider `CC(C)[C@]12O[C@H]1[C@@H]1O[C@@]13[C@@]1(C)CCC4=C(COC4=O)[C@]1(O)[C@@H](O)[C@@H]1O[C@@]13C2=O` [LLDT-17, cis-(5R, 6S)-5,6-dihydroxytriptonide], for which the melting point is 266 to 268 °C (dec.). Also, the “Cytotoxicity OD Value” with lymphocyte (10^−6 M) turned out to be 0.310. In addition, the “Cytotoxicity OD Value” in the data set on lymphocyte (10^−7 M) worked out at 0.355. The “Cytotoxicity OD Value” in the data set with lymphocyte (10^−8 M) was found to be 0.334. Besides, the “Lymphocyte Proliferation (cpm) T cell” value in the data set with T lymphocyte (10^−6 M) stood at 84825 cpm. In addition, the “Lymphocyte Proliferation (cpm) T cell” value in the data set on T lymphocyte (10^−7 M) came out at 67561 cpm. Further, the “Lymphocyte Proliferation (cpm) T cell” value in the data set on T lymphocyte (10^−8 M) is 74069 cpm. The “Lymphocyte Proliferation (cpm) B cell” value in the data set on B lymphocyte (10^−6 M) is given as 82861 cpm. For the same compound, the “Lymphocyte Proliferation (cpm) B cell” value with B lymphocyte (10^−7 M) amounted to 76376 cpm. Besides, the “Lymphocyte Proliferation (cpm) B cell” value in the data set on B lymphocyte (10^−8 M) worked out at 73969 cpm.
Take `CC(C)C12OC1C1OC13C1(C)CCC4=C(COC4=O)C1=CC1OC13C2O` (stereo not drawn) [LLDT-18, Δ^5,6-dehydrotriptolide]: the “Cytotoxicity OD Value” stood at 0.039 in the data set on lymphocyte (10^−6 M), 0.295 in the data set on lymphocyte (10^−7 M) and 0.367 in the data set on lymphocyte (10^−8 M). In addition, the “Lymphocyte Proliferation (cpm) T cell” value in the data set on T lymphocyte (10^−6 M) came out at 462 cpm; in the data set on T lymphocyte (10^−7 M) it was 53513 cpm; in the data set on T lymphocyte (10^−8 M), 92807 cpm. Further, the entries for the “Lymphocyte Proliferation (cpm) B cell” value in the data set with B lymphocyte (10^−6 M), in the data set on B lymphocyte (10^−7 M) and with B lymphocyte (10^−8 M) were 833 cpm, 75147 cpm and 79808 cpm, respectively.
`CC(C)[C@]12O[C@H]1[C@@H]1O[C@]13[C@]1(O[C@H]1C=C1C4=C(CC[C@@]13C)C(=O)OC4)[C@H]2O` [LLDT-19, Δ^5,6-dehydro-14-epitriptolide]: the figures for the “Cytotoxicity OD Value” with lymphocyte (10^−6 M), in the data set with lymphocyte (10^−7 M) and in the data set with lymphocyte (10^−8 M) were 0.340, 0.340 and 0.346, respectively. For the same compound, the “Lymphocyte Proliferation (cpm) T cell” value in the data set with T lymphocyte (10^−6 M) amounted to 79418 cpm; with T lymphocyte (10^−7 M) it was 71177 cpm; in the data set on T lymphocyte (10^−8 M), 76183 cpm. Moreover, the “Lymphocyte Proliferation (cpm) B cell” value is listed as 82989 cpm in the data set on B lymphocyte (10^−6 M), 70587 cpm in the data set with B lymphocyte (10^−7 M) and 69690 cpm in the data set on B lymphocyte (10^−8 M).
`CC(C)C12OC1C1OC13C1(OC1C1OC14C1=C(CCC43C)C(=O)OC1)C2O` [LLDT-20, (5R, 6S)-5,6-epoxytriptolide]: the entries for the “Cytotoxicity OD Value” with lymphocyte (10^−6 M), in the data set with lymphocyte (10^−7 M) and in the data set on lymphocyte (10^−8 M) were 0.263, 0.350 and 0.374, respectively. For the same compound, the “Lymphocyte Proliferation (cpm) T cell” value in the data set on T lymphocyte (10^−6 M) was 25344 cpm; with T lymphocyte (10^−7 M), 54771 cpm; in the data set on T lymphocyte (10^−8 M), 69785 cpm. Moreover, the “Lymphocyte Proliferation (cpm) B cell” value was 63169 cpm in the data set on B lymphocyte (10^−6 M), 85145 cpm in the data set on B lymphocyte (10^−7 M) and 78259 cpm in the data set with B lymphocyte (10^−8 M).
Consider `CC(C)[C@]12O[C@H]1[C@@H]1O[C@]13[C@]1(O[C@H]1[C@@H]1O[C@@]14C1=C(CC[C@]34C)C(=O)OC1)[C@H]2O` [LLDT-21, (5R, 6S)-5,6-epoxy-14-epitriptolide], for which the “Cytotoxicity OD Value” was determined as 0.361 in the data set on lymphocyte (10^−6 M), 0.332 in the data set with lymphocyte (10^−7 M) and 0.359 with lymphocyte (10^−8 M). In addition, the entries for the “Lymphocyte Proliferation (cpm) T cell” value in the data set on T lymphocyte (10^−6 M), in the data set with T lymphocyte (10^−7 M) and with T lymphocyte (10^−8 M) were 97217 cpm, 73513 cpm and 83465 cpm, respectively. The results for the “Lymphocyte Proliferation (cpm) B cell” value in the data set with B lymphocyte (10^−6 M), in the data set on B lymphocyte (10^−7 M) and in the data set on B lymphocyte (10^−8 M) were 86610 cpm, 75766 cpm and 76181 cpm, respectively.
`CC(C)C12OC1C1OC13C1(OC1C(O)C1(O)C4=C(CCC13C)C(=O)OC4)C2O` [LLDT-22, cis-(5R, 6S)-5,6-dihydroxytriptolide]: the “Cytotoxicity OD Value” with lymphocyte (10^−6 M) worked out at 0.157; in the data set on lymphocyte (10^−7 M), 0.345; in the data set with lymphocyte (10^−8 M) it was 0.374. Also, the “Lymphocyte Proliferation (cpm) T cell” value worked out at 2662 cpm in the data set with T lymphocyte (10^−6 M), 68787 cpm with T lymphocyte (10^−7 M) and 64367 cpm with T lymphocyte (10^−8 M). Moreover, the “Lymphocyte Proliferation (cpm) B cell” value is 16807 cpm in the data set on B lymphocyte (10^−6 M), 89706 cpm in the data set on B lymphocyte (10^−7 M) and 84748 cpm in the data set on B lymphocyte (10^−8 M).
For `CC(C)C12OC1C1OC13C1(OC1C(O)C1(O)C4=C(CCC13C)C(=O)OC4)C2O` [LLDT-23, cis-(5R, 6S)-5,6-dihydroxy-14-epitriptolide], the “Cytotoxicity OD Value” with lymphocyte (10^−6 M) is 0.302; in the data set with lymphocyte (10^−7 M) it was 0.349; in the data set on lymphocyte (10^−8 M) it was 0.366. For the same compound, the “Lymphocyte Proliferation (cpm) T cell” value amounted to 55614 cpm in the data set on T lymphocyte (10^−6 M), 104791 cpm with T lymphocyte (10^−7 M) and 84713 cpm with T lymphocyte (10^−8 M). Moreover, the “Lymphocyte Proliferation (cpm) B cell” value in the data set on B lymphocyte (10^−6 M) came to 99672 cpm; with B lymphocyte (10^−7 M) it was 86481 cpm; with B lymphocyte (10^−8 M) it was 76993 cpm.
